According to PubChem BioAssay (NCI):
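The concentration for 50% growth inhibition is given as GI50. TGI denotes the concentration required for complete inhibition of growth.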

How the values were obtained:
Assay in all cases: DTP human tumour cell line panel, 384-well format
[1] = system: TK-10 renal
[2] = system: SF-295 CNS
[3] = system: K-562 leukemia
[4] = system: HS 578T breast
[5] = system: ACHN renal
[6] = system: PC-3 prostate
[7] = system: HT29 colon
[8] = system: SF-268 CNS
[9] = system: NCI/ADR-RES ovarian
[10] = system: IGROV1 ovarian
[11] = system: 786-0 renal
[12] = system: HCT-15 colon
[13] = system: SK-OV-3 ovarian
[14] = system: OVCAR-4 ovarian
[15] = system: LOX IMVI melanoma
[16] = system: RXF 393 renal
[17] = system: MCF7 breast
[18] = system: MOLT-4 leukemia
[19] = system: M14 melanoma
[20] = system: SNB-75 CNS
[21] = system: MALME-3M melanoma
[22] = system: OVCAR-3 ovarian
[23] = system: SR leukemia
[24] = system: MDA-MB-435 melanoma
[25] = system: UACC-62 melanoma
[26] = system: CAKI-1 renal
[27] = system: UO-31 renal
[28] = system: KM12 colon

For `COC1CCC(N2C(=O)CNc3ncc(-c4ccc(C(C)(C)O)nc4)nc32)CC1` (stereo unspecified), the GI50 [1] was 504 nM, the TGI [1] was 17.2 µM and the GI50 [2] was 184 nM. For the same molecule, the TGI [2] was 1120 nM, the GI50 [3] was 517 nM and the TGI [3] was 72 µM. The GI50 [4] was 173 nM, the TGI [4] was 523 nM and the GI50 [5] was 479 nM. For the same molecule, the TGI [5] was > 100 µM, the GI50 [6] was 157 nM and the TGI [6] was 14.6 µM. The GI50 [7] was 697 nM, the TGI [7] was > 100 µM and the GI50 [8] was 2180 nM. It also gave a TGI [8] of 20 µM, a GI50 [9] of 2360 nM and a TGI [9] of 32.3 µM. It also gave a GI50 [10] of 137 nM, a TGI [10] of 12.8 µM and a GI50 [11] of 911 nM. The TGI [11] was > 100 µM, the GI50 [12] was 448 nM and the TGI [12] was 44.7 µM. For the same molecule, the GI50 [13] was 280 nM, the TGI [13] was 17.1 µM and the GI50 [14] was 901 nM. For the same molecule, the TGI [14] was 8.95 µM, the GI50 [15] was 587 nM and the TGI [15] was 12.9 µM. It also gave a GI50 [16] of 438 nM, a TGI [16] of 92.4 µM and a GI50 [17] of 68.6 nM. For the same molecule, the TGI [17] was > 100 µM, the GI50 [18] was 233 nM and the TGI [18] was 2110 nM. The GI50 [19] was 296 nM, the TGI [19] was > 100 µM and the GI50 [20] was 256 nM. It also gave a TGI [20] of 22.9 µM, a GI50 [21] of 68.9 nM and a TGI [21] of 587 nM. For the same molecule, the GI50 [22] was 386 nM, the TGI [22] was 22.8 µM and the GI50 [23] was 16 nM. For the same molecule, the TGI [23] was 53.3 nM, the GI50 [24] was 515 nM and the TGI [24] was 24.2 µM. The GI50 [25] was 237 nM, the TGI [25] was 8.49 µM and the GI50 [26] was 215 nM. The TGI [26] was 3.62 µM, the GI50 [27] was 358 nM and the TGI [27] was > 100 µM. It also gave a GI50 [28] of 474 nM and a TGI [28] of 33.9 µM.
